# Reference: patent publication US5324648A, “Substituted isocoumarins as serine protease inhibitors and anti-inflammatory agents” (Georgia Tech Research Corporation, priority 1992, dated 1994)
# Like-named read-outs stand apart in the source and are kept apart here.
# Tests used:
# [1] = target: T1, mouse granzyme A (Mus musculus, UniProt P11032); test: Inactivation rate of mouse granzyme A; format: biochemical; settings: Table VII; pH 7.5, 25° C; [I] 0.4 to 45 μM; read-out: kobs/[I]
# T1 construct: mouse cytotoxic lymphocyte granzyme A; endogenous in cells; host or cells: mouse cytotoxic lymphocytes
# T1 sequence (P11032 29-260): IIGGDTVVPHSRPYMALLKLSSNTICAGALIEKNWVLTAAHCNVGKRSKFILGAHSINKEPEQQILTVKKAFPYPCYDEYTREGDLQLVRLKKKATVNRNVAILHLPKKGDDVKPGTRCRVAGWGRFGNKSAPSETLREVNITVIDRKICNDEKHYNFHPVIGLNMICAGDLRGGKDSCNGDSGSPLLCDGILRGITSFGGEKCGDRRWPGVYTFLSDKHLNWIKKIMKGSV
# Method: (§1) Inactivation rates of serine proteases by substituted isocoumarins were measured by the incubation method. An aliquot of inhibitor (25 or 50 μl) in Me2 SO was added to a buffered enzyme solution (0.01-2.3 μM) to initiate the inactivation. Aliquots (50 μl) were withdrawn at various intervals and the residual enzymatic activity was measured. Me2 SO concentration in the reaction mixture was 8-12% (v/v). 0.1 Hepes, 0.01M CaCl2, pH 7.5 buffer was utilized for trypsin and coagulation enzymes. 0.1M Hepes, 0.5M NaCl, pH 7.5 was utilized for other serine proteases. The inhibitor concentrations are shown in all the tables. Peptide thioesters or peptide nitroanilides with appropriate sequence were used as substrates for various serine proteases. All peptide thioester hydrolysis rates were measured with assay mixtures containing 4,4'-dithiodipyridine (ε324 =19800M^-1 cm^-1; Grasetti & Murray, Arch. Biochem. Biophys. 119, pp 41-49 (1967)). Peptide 4-nitroanilide nitroanilide hydrolysis was measured at 410 nm (ε410 =8800M^-1 cm^-1; Erlanger et al., Arch. Biochem. Biophys. 95, pp 271-278 (1961)). First order inactivation rate constant (kobs) were obtained from plots of ln (vt /vo) vs time, and the correlation coefficients were greater than 0.98.
# (§2) ^a Inactivation rates were measured at 0.1M Hepes, 0.01M CaCl2,
# (§3) pH 7.5, 8% Me2 SO and 25° C. by incubation method. ZArg-SBzl
# (§4) (74-85 μM) was used as the substrate to monitor the residual enzymatic
# [2] = tested on: T2, human Q-31 tryptase (Homo sapiens); test: Inactivation rate of human Q-31 tryptase; format: biochemical; settings: Table VII; pH 7.5, 25° C; [I] 3 to 500 μM; read-out: kobs/[I]
# T2 construct: human cytotoxic lymphocyte Q31 tryptase; endogenous in cells; host or cells: human cytotoxic lymphocyte Q31
# Method: as §1, §2, §3, §4
# [3] = Activated partial thromboplastin time (APTT), human plasma
# [4] = target: T3, bovine thrombin (Bos taurus, UniProt P00735); test: Inactivation rate of bovine thrombin; format: biochemical; settings: read-out: kobs/[I]
# T3 construct: bovine thrombin
# In short: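 Incubation method: isocoumarin inhibitor in Me2SO added to enzyme (0.01-2.3 μM) in 0.1M Hepes, 0.01M CaCl2, pH 7.5, 8-12% Me2SO, 25° C; aliquots withdrawn over time for residual activity against peptide thioester or 4-nitroanilide substrates. kobs from ln(vt/vo) vs time.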
# [5] = target: T4, bovine factor Xa (Bos taurus, UniProt P00743); test: Inactivation rate of bovine factor Xa; format: biochemical; settings: Table I; pH 7.5, 25° C; [I] 0.4 to 310 μM; read-out: kobs/[I]
# T4 construct: bovine factor Xa
# [6] = target: T5, human plasma kallikrein (Homo sapiens, UniProt P03952); test: Inactivation rate of human plasma kallikrein; format: biochemical; settings: Table I, read-out: kobs/[I]
# T5 construct: human plasma kallikrein; from tissue; host or cells: human plasma (from the name)
# Method: as §1
# (§5) ^a Conditions were as 0.1M Hepes, 0.01M CaCl2, pH 7.5 and 8-12%
# (§6) Me2 SO and 25° C. Rate constants were measured by incubation
# (§7) method unless otherwise noted. An aliquot of inhibitor was added to an
# (§8) enzyme solution and aliquots removed with time and assayed for remaining
# (§9) enzymatic activity. Firstorder rate constants, kobs were obtained
# (§10) from the plots of ln(vt /vo) versus time.
# [7] = target: T6, human factor XIa (Homo sapiens, UniProt P03951); test: Inactivation rate of human factor XIa; format: biochemical; settings: pH 7.5, 25° C, read-out: kobs/[I]
# T6 construct: human factor XIa
# Method: as §1, §5, §6, §7, §8, §9, §10
# ^a Inhibition rates were measured in 0.1M Hepes, 0.01M CaCl2, pH
# 7.5 buffer, 8% Me2 SO and at 25° C.
# [8] = target: T7, human leukocyte elastase (HLE) (Homo sapiens, UniProt P08246); test: Inactivation of human leukocyte elastase (HLE); format: biochemical
# T7 construct: from tissue; host or cells: human leukocytes (from the name)
# T7 sequence (P08246 30-267): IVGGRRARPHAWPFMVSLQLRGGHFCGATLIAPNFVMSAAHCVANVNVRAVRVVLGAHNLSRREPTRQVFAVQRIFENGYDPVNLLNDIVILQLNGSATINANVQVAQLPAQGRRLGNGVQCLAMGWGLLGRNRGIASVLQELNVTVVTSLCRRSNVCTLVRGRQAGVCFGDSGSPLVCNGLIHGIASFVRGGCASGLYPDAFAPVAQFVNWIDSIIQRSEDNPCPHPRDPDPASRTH
# Method: Inactivation rates of serine proteases by substituted isocoumarins were measured by the incubation method. An aliquot of inhibitor (25 or 50 μl) in Me2 SO was added to a buffered enzyme solution (0.01-2.3 μM) to initiate the inactivation. Aliquots (50 μl) were withdrawn at various intervals and the residual enzymatic activity was measured. Me2 SO concentration in the reaction mixture was 8-12% (v/v). 0.1 Hepes, 0.01M CaCl2, pH 7.5 buffer was utilized for trypsin and coagulation enzymes. 0.1M Hepes, 0.5M NaCl, pH 7.5 was utilized for other serine proteases. […] Peptide thioesters or peptide nitroanilides with appropriate sequence were used as substrates for various serine proteases. All peptide thioester hydrolysis rates were measured with assay mixtures containing 4,4'-dithiodipyridine (ε324 =19800M^-1 cm^-1 ; Grasetti & Murray, Arch. Biochem. Biophys. 119, pp 41-49 (1967)). Peptide 4-nitroanilide nitroanilide hydrolysis was measured at 410 nm (ε410 =8800M^-1 cm^-1 ; Erlanger et al., Arch. Biochem. Biophys. 95, pp 271-278 (1961)). First order inactivation rate constant (kobs) were obtained from plots of ln (vt /vo) vs time, and the correlation coefficients were greater than 0.98.
# ^a Inactivation rates were measured at 0.1M Hepes, 0.5 NaCl, pH 7.5,
# 8-12% Me2 SO and 25° C. by incubation method.
# ^a Inhibition rates were measured in 0.1M Hepes, 0.05M NaCl, pH 7.5
# buffer, 8-9% Me2 SO and at 25° C.
# ^a Inhibition constants were in 0.1M Hepes, 0.5M NaCl, pH 7.5 buffer,
# 8-9% Me2 SO and at 25° C.
# ^a Inhibition rates were measured in 0.1M Hepes, 0.5M NaCl, 2.5%
# Me2 SO, pH 7,5 and at 25° C.
# ^a Inhibition was measured in 0.1M Hepes, 0.5M NaCl, pH 7.5 buffer,
# 5-10% Me2 SO and at 25° C. Suc--Val--Pro--Phe--NA (0.48 mM)
# was used as the substrate for chymotrypsin and cat G.
# ^a Inhibition rates were measured in 0.1M Hepes, 0.5M NaCl, pH 7.5
# [9] = target: chymotrypsin (Bos taurus, UniProt P00766); test: Inactivation of chymotrypsin; format: biochemical, bovine; settings: pH 7.5, 25° C, read-out: kobs/[I]
# [10] = Spontaneous hydrolysis in Hepes buffer; format: physicochemical; settings: 0.1 Hepes, 0.5M NaCl, pH 7.5, 9% Me2SO, 25° C; for half-life: hepes buffer, read-out: t1/2 for spontaneous hydrolysis
# Method: ^a Conditions were 0.1 Hepes, 0.5M NaCl, pH 7.5 and 9% Me2 SO at
# 25° C. Spontaneous hydrolysis rates were measured
# spectrophotometrically by monitoring the decrease in absorbance due to th
# isocoumarin ring system (wavelength 335-380 nm) using the firstorder rate
# [11] = Table I, pH 7.5, 25° C, [I] 0.3 to 400 μM
# [12] = pH 7.5, based on residual activity at 0.2 min
# [13] = Table IV, pH 7.5, 25° C, [I] 0.001 to 0.18 mM, read-out: kobs/[I]
# [14] = pH 7.5, 25° C, [I] 3 to 330 μM (footnote g)
# [15] = pH 7.5, Table I, same concentration of enzyme and inhibitor
# T2 sequence (P12544 29-262): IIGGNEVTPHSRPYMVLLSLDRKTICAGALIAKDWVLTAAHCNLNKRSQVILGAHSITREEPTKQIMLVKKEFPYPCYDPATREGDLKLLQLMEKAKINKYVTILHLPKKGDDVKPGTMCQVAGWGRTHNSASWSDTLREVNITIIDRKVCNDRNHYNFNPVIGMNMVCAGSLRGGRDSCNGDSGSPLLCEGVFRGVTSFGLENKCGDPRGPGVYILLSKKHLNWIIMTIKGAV
# T4 sequence (P00743 234-492 limits assumed): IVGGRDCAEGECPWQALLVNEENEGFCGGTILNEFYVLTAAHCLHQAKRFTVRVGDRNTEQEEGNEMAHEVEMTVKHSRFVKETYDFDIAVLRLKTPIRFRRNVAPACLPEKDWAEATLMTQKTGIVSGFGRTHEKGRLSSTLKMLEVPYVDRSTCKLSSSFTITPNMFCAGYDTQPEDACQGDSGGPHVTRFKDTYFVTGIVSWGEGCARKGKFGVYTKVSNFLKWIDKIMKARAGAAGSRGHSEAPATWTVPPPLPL
# T4 sequence (P00743 41-180 partner limits assumed): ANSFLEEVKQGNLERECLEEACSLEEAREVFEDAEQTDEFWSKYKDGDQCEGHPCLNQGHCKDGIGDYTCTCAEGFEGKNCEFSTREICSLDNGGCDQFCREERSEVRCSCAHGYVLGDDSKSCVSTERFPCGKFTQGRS
# T6 sequence (P03951 388-625 limits assumed): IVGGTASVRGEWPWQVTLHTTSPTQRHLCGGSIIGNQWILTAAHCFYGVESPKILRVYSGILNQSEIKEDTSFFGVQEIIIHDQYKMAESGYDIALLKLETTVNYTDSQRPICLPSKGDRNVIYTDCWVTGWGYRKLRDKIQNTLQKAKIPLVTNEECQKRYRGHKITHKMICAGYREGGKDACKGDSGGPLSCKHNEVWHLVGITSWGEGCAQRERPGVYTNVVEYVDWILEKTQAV
# T6 sequence (P03951 19-387 partner limits assumed): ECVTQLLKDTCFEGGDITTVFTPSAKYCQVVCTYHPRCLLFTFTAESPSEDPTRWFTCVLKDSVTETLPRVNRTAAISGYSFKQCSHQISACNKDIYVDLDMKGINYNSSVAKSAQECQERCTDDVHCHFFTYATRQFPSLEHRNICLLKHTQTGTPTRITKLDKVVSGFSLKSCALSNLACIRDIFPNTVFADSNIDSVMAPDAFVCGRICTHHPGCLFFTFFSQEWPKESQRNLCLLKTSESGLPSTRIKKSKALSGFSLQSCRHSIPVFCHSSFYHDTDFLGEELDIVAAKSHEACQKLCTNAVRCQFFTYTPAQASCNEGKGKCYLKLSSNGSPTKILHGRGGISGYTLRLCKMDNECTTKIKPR
# T5 sequence (P03952 391-638 limits assumed): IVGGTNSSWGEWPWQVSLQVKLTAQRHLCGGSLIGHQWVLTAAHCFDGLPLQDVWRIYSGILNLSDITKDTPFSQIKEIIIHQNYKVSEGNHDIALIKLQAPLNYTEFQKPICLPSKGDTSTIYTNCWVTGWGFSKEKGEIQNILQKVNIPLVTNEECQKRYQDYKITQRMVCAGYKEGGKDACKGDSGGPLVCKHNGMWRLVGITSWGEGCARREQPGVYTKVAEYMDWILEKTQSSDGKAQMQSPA
# T5 sequence (P03952 20-390 partner limits assumed): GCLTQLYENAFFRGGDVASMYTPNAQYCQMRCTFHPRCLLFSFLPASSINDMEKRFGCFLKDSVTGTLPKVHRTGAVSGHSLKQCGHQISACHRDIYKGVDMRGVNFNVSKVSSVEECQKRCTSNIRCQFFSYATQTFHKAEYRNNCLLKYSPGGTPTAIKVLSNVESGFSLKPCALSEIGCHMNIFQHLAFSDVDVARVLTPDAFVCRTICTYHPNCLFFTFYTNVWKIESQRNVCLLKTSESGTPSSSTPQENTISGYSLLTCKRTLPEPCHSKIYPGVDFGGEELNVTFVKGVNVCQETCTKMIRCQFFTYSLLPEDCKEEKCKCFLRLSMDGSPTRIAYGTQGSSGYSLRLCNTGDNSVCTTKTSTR
Compound,kinact/KI [1] [M⁻¹ s⁻¹],kinact/KI [2] [M⁻¹ s⁻¹],"kinact/KI [4, 11] [M⁻¹ s⁻¹]",kinact/KI [5] [M⁻¹ s⁻¹],"kinact/KI [6, 12] [M⁻¹ s⁻¹]","kinact/KI ([7]; Table I, [I] 3 to 330 μM) [M⁻¹ s⁻¹]","kinact/KI [8, 13] [M⁻¹ s⁻¹]","kinact/KI ([9]; Table IV, [I] 0.004 to 0.33 mM) [M⁻¹ s⁻¹]",half-life [10] [h],"kinact/KI [6, 14] [M⁻¹ s⁻¹]",other results
"O=c1oc(Cl)c(Cl)c2ccccc12 [3,4-dichloroisocoumarin, reference compound]",50,29,–,–,–,–,–,–,–,–,APTT ([3]; [I] 33 μM): 26.6 s; APTT ([3]; [I] 45 μM): 26.0 s
N=C(N)SCCOc1oc(=O)c2ccccc2c1Cl [3-(2-isothiureidoethoxy)-4-chloroisocoumarin],–,–,4700,5600,280000,44000,220,1300,1.38,–,–
NCCCOc1oc(=O)c2ccccc2c1Cl [3-(3-aminopropoxy)-4-chloroisocoumarin],770,–,350,160,–,380,860,580,2.05,1400,–
N=C(N)SCCCOc1oc(=O)c2ccccc2c1Cl [3-(3-isothiureidopropoxy)-4-chloroisocoumarin],17500,12800,1430,220,> 110000,47000,2000,1700,1.65,–,APTT ([3]; [I] 31 μM): 25.8 s
N=C(N)SCCCOc1oc(=O)c2cc(N)ccc2c1Cl [7-amino-4-chloro-3-(3-isothiureidopropoxy)isocoumarin],3000,1960,630,1640,–,22000,130,1600,–,1100,t1/2 for spontaneous hydrolysis [10]: 1.5 h; APTT ([3]; [I] 2.9 μM): 100.8 s; APTT ([3]; [I] 29 μM): > 120 s
"CCOc1oc(=O)c2cc(NC(=N)N)ccc2c1Cl [7-guanidino-3-ethoxy-4-chloroisocoumarin, 7-guanidino-4-chloro-3-ethoxyisocoumarin]",26200,6180,–,26700,> 500000,60000,81000,37000,0.65,–,"kinact/KI [4, 15]: > 55000 M⁻¹ s⁻¹; APTT ([3]; [I] 4.3 μM): 74.8 s; APTT ([3]; [I] 21 μM): > 120 s; APTT ([3]; [I] 53 μM): > 120 s; APTT ([3]; [I] 107 μM): > 120 s"
COc1cc2ccc(NC(=N)N)cc2c(=O)o1 [7-guanidino-3-methoxyisocoumarin],–,–,4900,460,–,1400,320,270,4.2,13000,–
N=C(N)Nc1ccc2c(Cl)c(OCCc3ccccc3)oc(=O)c2c1 [7-guanidino-4-chloro-3-(2-phenylethoxy)isocoumarin],6400,1880,–,96000,> 270000,20000,73,38000,0.6,–,"kinact/KI [4, 15]: > 30000 M⁻¹ s⁻¹; APTT ([3]; [I] 27 μM): 57.3 s"
COc1oc(=O)c2cc(NC(=N)N)ccc2c1Cl [7-guanidino-4-chloro-3-methoxyisocoumarin],15000,6620,–,3100,–,36200,6400,7200,0.733,–,"kinact/KI ([4]; pH 7.5, Table I, progress curve method): 290000 M⁻¹ s⁻¹; kinact/KI ([6]; pH 7.5, progress curve method): 240000 M⁻¹ s⁻¹; APTT ([3]; [I] 21 μM): 83.8 s"
"N=C(N)SCCOc1oc(=O)c2cc(NC(=O)Nc3ccccc3)ccc2c1Cl [PhNHCONH-CiTEtOIC, 7-(phenylcarbamoylamino)-4-chloro-3-(2-isothiureidoethoxy)isocoumarin]",–,–,–,–,–,–,–,–,–,–,"kinact/KI ([4]; Table VIII, pH 7.5, 25° C, [I] 1.2-54 μM): 25000 M⁻¹ s⁻¹; kinact/KI ([7]; Table VIII, [I] 0.7-0.8 μM): 104000 M⁻¹ s⁻¹; kinact/KI ([8]; pH 7.5, Table X, biphasic inhibition, read-out: kobs/[I] (biphasic, first value)): 46000 M⁻¹ s⁻¹; kinact/KI ([8]; pH 7.5, Table X, biphasic inhibition, read-out: kobs/[I] (biphasic, second value)): 5730 M⁻¹ s⁻¹; kinact/KI ([9]; Table X, [I] 0.9-43 μM): 16000 M⁻¹ s⁻¹; t1/2 for spontaneous hydrolysis [10]: 1.8 h"
